# Experimental data as given in patent publication US20250186405A1, “Compound For Use In Treating Narcolepsy” (Alkermes, Inc., priority 2023, published 2025).
# Where two headings read alike, the source gives them in different places.
# Assays:
# [1] = Part 1 SAD: plasma pharmacokinetics after single oral dose; type: in vivo, human; conditions: for CL/F / AUC(0-t) / Cmax / AUC(0-inf) / half-life / Vd/F / concentration at 8 h: geometric mean; for AUC(0-t) / Cmax / AUC(0-inf) / half-life / Vd/F / concentration at 8 h / Tmax: human, plasma; for Vd/F: read-out: Vz/F; for concentration at 8 h: read-out: C8 (concentration at 8-hour post dose)
# Procedure: There were approximately 8 subjects per cohort. Dose levels were as follows:
# Blood samples (up to 5 mL per sample) were collected for PK analysis of Compound A and its metabolite(s). The actual time of sample collection was recorded. The PK samples of the subjects randomized to placebo treatment were not analyzed. Any remaining plasma PK samples were used to explore the presence of any additional metabolites and/or biomarkers.
# Plasma and urine concentrations of Compound A and its metabolite(s) were measured using a validated high-performance liquid chromatography with tandem mass spectrometry.
# The plasma PK parameters of Compound A and its metabolite(s) were determined from the plasma concentration-time profiles for all evaluable subjects. Actual sampling times, rather than scheduled sampling times, were used in all computations involving sampling times. The below lower limit of quantitation concentrations were set to zero prior to PK parameter estimation.
# The PK population was used for summaries of plasma Compound A and its metabolite(s) concentrations and for analyses, summaries, and listing of PK parameters. Dose proportionality for Cmax, AUC0-t, and AUC0-∞ was evaluated using a linear model of logarithmically transformed values to assess the slope parameter, and the 95% CI for the slope was estimated. Where the 95% CI of the slope includes 1, it was considered as evidence of dose proportionality for that PK parameter.
# [2] = Oral PK of micronized Compound A, powder-in-capsule vs tablet, two particle sizes; type: in vivo, male Beagle dogs; conditions: male, Beagle, dog, plasma
# Procedure: A non-GLP study was conducted in male Beagle dogs to compare the Compound A plasma exposure of powder-in-capsule (PIC) versus tablet formulation after the administration of single oral doses of micronized Compound A. Two different particle sizes were tested with the following objectives: • 1. To compare the oral plasma exposure of micronized Compound A (12 micron Dv90 particle size) after the administration of 20 mg of Compound A powder-in-capsule vs 20 mg of Compound A in four tablets of 5 mg each. • 2. To compare the oral plasma exposure of 12 micron and 32 micron Dv90 particle size of 20 mg micronized Compound A administered in four tablets of 5 mg each. • 3. To evaluate the dose-linearity of Compound A by comparing the oral plasma exposure of Compound A following the oral administration of 5 mg (one tablet) versus 20 mg (four tablets) of Compound A.
# The pharmacokinetic analysis of concentrations and concentration-time data are summarized in tabular form, below, using descriptive statistics. Concentration data were summarized according to nominal sampling times. Plasma concentrations below the lower limit of assay quantification (BLOQ) were not included in the computation of mean concentration values. Pharmacokinetic parameters for individual animals were estimated using the non-compartmental analysis (NCA) using Dotmatics Studies tool.
# The absolute extravascular bioavailability (F %) were calculated using the following formula: F %= [(AUC0-∞(extravascular)×Dose(intravenous(IV)))/(AUC0-∞(intravenous(IV))×Dose(extravascular))]×100 Where the “extravascular” represents any of subcutaneous (SC), intraperitoneal (IP) or oral (PO) route of administration.
# The F % is calculated for each subject in case the same animals were administered with both intravenous and extravascular dose, then the average is reported with the standard error; otherwise, F % is calculated using the mean values without reporting a standard deviation in case the subjects of intravenous and extravascular profiles are different. Pharmacokinetic parameters were summarized by dosing group, route of administration, formulation, etc. using descriptive statistics.
# [3] = 1 mg single dose (low end of 1 to 50 mg)
# [4] = 50 mg single dose (high end of 1 to 50 mg)
smiles,measurement,setting,value
"CS(=O)(=O)N[C@H]1CCCN2C(=O)COc3ccccc3C3CCC(CC3)OCC12 (stereo partly drawn) [Compound A, N-[(4S,4aR,7α,10α)-1,2,3,4,4a,5,7,8,9,10,16,17-dodecahydro-17-oxo-7,10-ethanopyrido[1,2-d][1,7,4]benzodioxaazacyclotridecin-4-yl]methanesulfonamide]",geometric mean AUC0-inf/D,[1]; [3],11.6
same,geometric mean Cmax/D,[1]; [3],3.2
same,CL/F,"[1]; 1 mg single dose, N = 5",86.0 L/h
same,CL/F,"[1]; 3 mg single dose, N = 3",95.6 L/h
same,CL/F,"[1]; 8 mg single dose, N = 4",96.4 L/h
same,CL/F,"[1]; 15 mg single dose, N = 5",89.8 L/h
same,CL/F,[1]; 25 mg single dose,91.1 L/h
same,geometric mean AUC0-inf/D,[1]; [4],10.1
same,geometric mean Cmax/D,[1]; [4],0.59
same,CL/F,"[1]; 50 mg single dose, N = 2",99.3 L/h
same,AUC(0-t),"[1]; oral, 1 mg single dose",12.3 ng·h/mL
same,Cmax,"[1]; oral, 1 mg single dose",3.23 ng/mL
same,AUC(0-inf),"[1]; oral, 1 mg single dose, N = 5",11.6 ng·h/mL
same,half-life,"[1]; oral, 1 mg single dose, N = 5",167 min
same,Vd/F,"[1]; oral, 1 mg single dose, N = 5",346 L
same,concentration at 8 h,"[1]; oral, 1 mg single dose",0.337 ng/mL
same,Tmax,"[1]; oral, 1 mg single dose, median, read-out: Tmax",1.5 h
same,AUC(0-t),"[1]; oral, 3 mg single dose",36.6 ng·h/mL
same,Cmax,"[1]; oral, 3 mg single dose",6.15 ng/mL
same,AUC(0-inf),"[1]; oral, 3 mg single dose, N = 3",31.4 ng·h/mL
same,half-life,"[1]; oral, 3 mg single dose, N = 3",139 min
same,Vd/F,"[1]; oral, 3 mg single dose, N = 3",318 L
same,concentration at 8 h,"[1]; oral, 3 mg single dose",1.24 ng/mL
same,Tmax,"[1]; oral, 3 mg single dose, median, read-out: Tmax",1.5 h
same,AUC(0-t),"[1]; oral, 8 mg single dose",81.3 ng·h/mL
same,Cmax,"[1]; oral, 8 mg single dose",11.5 ng/mL
same,AUC(0-inf),"[1]; oral, 8 mg single dose, N = 4",83 ng·h/mL
same,half-life,"[1]; oral, 8 mg single dose, N = 4",960 min
same,Vd/F,"[1]; oral, 8 mg single dose, N = 4",2220 L
same,concentration at 8 h,"[1]; oral, 8 mg single dose",2.47 ng/mL
same,Tmax,"[1]; oral, 8 mg single dose, median, read-out: Tmax",2 h
same,AUC(0-t),"[1]; oral, 15 mg single dose",165 ng·h/mL
same,Cmax,"[1]; oral, 15 mg single dose",22.1 ng/mL
same,AUC(0-inf),"[1]; oral, 15 mg single dose, N = 5",167 ng·h/mL
same,half-life,"[1]; oral, 15 mg single dose, N = 5",606 min
same,Vd/F,"[1]; oral, 15 mg single dose, N = 5",1300 L
same,concentration at 8 h,"[1]; oral, 15 mg single dose",4.07 ng/mL
same,Tmax,"[1]; oral, 15 mg single dose, median, read-out: Tmax",2.5 h
same,AUC(0-inf),"[1]; oral, 25 mg single dose",274 ng·h/mL
same,AUC(0-t),"[1]; oral, 25 mg single dose",241 ng·h/mL
same,Cmax,"[1]; oral, 25 mg single dose",23.1 ng/mL
same,half-life,"[1]; oral, 25 mg single dose",750 min
same,concentration at 8 h,"[1]; oral, 25 mg single dose",5.7 ng/mL
same,Vd/F,"[1]; oral, 25 mg single dose",1650 L
same,Tmax,"[1]; oral, 25 mg single dose, median, read-out: Tmax",1 h
same,AUC(0-t),"[1]; oral, 50 mg single dose",357 ng·h/mL
same,Cmax,"[1]; oral, 50 mg single dose",29.3 ng/mL
same,AUC(0-inf),"[1]; oral, 50 mg single dose, N = 2",503 ng·h/mL
same,half-life,"[1]; oral, 50 mg single dose, N = 2",440 min
same,Vd/F,"[1]; oral, 50 mg single dose, N = 2",1050 L
same,concentration at 8 h,"[1]; oral, 50 mg single dose",7.83 ng/mL
same,Tmax,"[1]; oral, 50 mg single dose, median, read-out: Tmax",2 h
same,Tmax,"[1]; single oral doses 1 to 50 mg, fasted subjects, read-out: median Tmax, range across doses",1 to 2.5 h
same,fold change in geometric mean AUC (AUClast) for 50-fold change in dose,[1]; single doses 1 to 50 mg,29 fold
same,fold change in geometric mean Cmax for 50-fold change in dose,[1]; single doses 1 to 50 mg,9 fold
same,bioavailability,"[2]; 5 mg, one 5 mg tablet, 12 micron Dv90, read-out: Oral bioavailability (F %)",55%
same,bioavailability,"[2]; 20 mg, 20 mg PIC and 4 tablets of 5 mg, 12 and 32 micron Dv90, read-out: F % (absolute oral bioavailability), range",26 to 29%
same,bioavailability,"[2]; 20 mg, four 5 mg tablets (20 mg), 12 micron Dv90, read-out: Oral bioavailability (F %)",29%
same,Tmax,"[2]; 20 mg PIC and 4 tablets of 5 mg, 12 and 32 micron Dv90",~3 h
same,AUC(0-inf),"[2]; 20 mg PIC and 4 tablets of 5 mg, 12 and 32 micron Dv90, read-out: AUC0-∞, range",1570 to 1730 ng·h/mL
same,Cmax,"[2]; 20 mg PIC and 4 tablets of 5 mg, 12 and 32 micron Dv90, read-out: Cmax, range",230 to 270 ng/mL
same,half-life,"[2]; 20 mg PIC and 4 tablets of 5 mg, 12 and 32 micron Dv90, read-out: terminal t1/2 (converted)",~180 min
